Data as given in patent publication US20210009630A1, “CYCLIC DINUCLEOTIDES AS STING AGONISTS” (Janssen Biotech, Inc., priority 2017, published 2021).
Like-named read-outs stand apart in the source and are kept apart here.

Assays:
[1] = tested on: human STING pathway (THP1-ISG cells); assay: STING human cell reporter assay; assay type: cell-based; conditions: IRF-inducible SEAP reporter, 24 h, means of at least three values
Procedure: Agonism of the human STING pathway is assessed in THP1-ISG cells (Invivogen, cat #thp-isg) derived from human THP1 monocyte cell line by stable integration of an interferon regulatory factor (IRF)-inducible SEAP reporter construct. THP1-Blue ISG cells express a secreted embryonic alkaline phosphatase (SEAP) reporter gene under the control of an ISG54 minimal promoter in conjunction with five interferon (IFN)-stimulated response elements. As a result, THP1-Blue ISG cells allow the monitoring of IRF activation by determining the activity of SEAP. The levels of IRF-induced SEAP in the cell culture supernatant are readily assessed with alkaline phosphatase detection medium, a SEAP detection reagent. These cells are resistant to Zeocin. 2′3′cGAMP was used as a positive control in this assay. To run the assay, 60,000 cells were dispensed in 30 μL/well of a white, opaque bottom tissue culture treated 384-well plate.
Test compounds were added in a volume of 10 μL (1% DMSO final concentration). Compounds are initially prepared in 100% DMSO, spotted on an compound dilution plate and then diluted in media prior to transfer. The assay was incubated for 24 h at 37° C., 5% CO2 then plates were centrifuged at 1200 rpm (120×g) for 5 min. After final incubation, 90 μL of alkaline phosphatase detection medium-substrate was added to each well of a new 384-well clear plate and 10 μL of the cell supernatant was transferred from the assay plate to the new alkaline phosphatase detection medium-plate using a Biomek FX and mixed 4 times. Plates were incubated at RT for 20 min then absorbance at 655 nm was determined on the Tecan Safire2.

[2] = target: human STING (biotinylated STING protein, residues 139-379 of Q86WV6, H232R) (Homo sapiens, UniProt Q86WV6, H232R); assay: STING SPA binding assay
Procedure: The HIS tag is cleaved after purification and prior to biotinylation.
Test compounds (80 nL) were added with an acoustic dispenser (EDC Biosystems) in 100% DMSO for a final assay concentration of 1% DMSO. Plates were centrifuged for 1 min and incubated for 60 min at room temperature. […] Plates were dark adapted for 2 h and read on a ViewLux (Perkin Elmer) for 12 min per plate.

[3] = target: T1, human STING (E. coli produced truncated STING protein) (Homo sapiens, UniProt Q86WV6, H232R); assay: STING SPR binding assay; conditions: steady state affinity, 1:1 binding model, 25° C.
T1 construct: contains residues 139-379 of Q86WV6 with an R at position 232 (H232R); HIS tag (N, cleaved yes); made in house; host or cells: E. coli
Procedure: Compounds were analyzed on an S200 biacore SPR instrument (GE Healthcare). E. coli produced truncated STING protein was immobilized on a series S streptavidin chip via biotin capture (GE Healthcare #BR100531) with. […] Steady state affinity and kinetic evaluations were carried out using 1:1 binding model (STING was treated as a dimer). Run parameters were as follows: 60 sec on, 300 sec off for the IFM compounds, cyclic-di-GMP (60 sec on/60 sec off), thiol isomer 1 (60 sec on/300 sec off) and cGAMP (60 sec on/1200 sec off) with a flow rate of 50 μL/min and data collection at 40 Hz at 25° C.

[4] = tested on: THP1-Blue ISG cells (IFN-β secretion); assay: Human interferon-β induction assay; assay type: cell-based; conditions: total cumulative IFN-β induction over the dose range tested (0.78 to 50 uM) in THP-1 cells after a 24 hour exposure
Procedure: THP1-Blue ISG cells are used to measure the secretion of IFN-β into the culture supernatant following STING pathway activation. To run the assay, anti-IFN-β capture antibodies were coated on […] well MultiArray plates (Mesoscale Discovery). After a one hour incubation, plates were washed and 50 μL supernatant from the STING human cell reporter assay plates or IFN-β standards were mixed with 20 μL Sulfotag-conjugated detection antibody in the coated plates. Plates were incubated, shaking for 2 h, washed, and read buffer was applied. Electrochemiluminescence was measured on the SectorImager.

[5] = read-out: hSTING SPA IC50, displacement of [3H]-2′3′-cGAMP from biotin-STING, means of at least three values

T1 sequence (Q86WV6 139-379 H232R): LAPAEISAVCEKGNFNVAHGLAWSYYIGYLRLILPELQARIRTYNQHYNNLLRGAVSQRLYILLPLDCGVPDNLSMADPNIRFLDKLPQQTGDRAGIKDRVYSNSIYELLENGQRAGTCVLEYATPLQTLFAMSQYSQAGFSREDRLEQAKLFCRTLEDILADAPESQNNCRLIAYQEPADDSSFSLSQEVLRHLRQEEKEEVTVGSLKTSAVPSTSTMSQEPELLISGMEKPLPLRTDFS
Chain of human STING (biotinylated STING protein, residues 139-379 of Q86WV6, H232R) (Q86WV6 139-379 H232R, one chain of several): as the sequence (Q86WV6 139-379 H232R) above

| Compound | EC50 ([1]; Homo sapiens) [nM] | IC50 [2] [nM] | EC50 [1] [nM] | Kd [3] [nM] | IC50 [2, 5] [nM] | human IFN-β (ranking value) [4] [pg/mL] |
| --- | --- | --- | --- | --- | --- | --- |
| Nc1ncnc2c1ncn2[C@@H]1O[C@@H]2CNS(=O)(=O)O[C@@H]3[C@H](F)[C@@H](COP(=O)(O)O[C@H]2[C@H]1F)O[C@H]3n1cnc2c(=O)[nH]cnc21 [Compound 39] | 65 | 21 |  |  |  |  |
| Nc1nc2c(ncn2[C@@H]2O[C@@H]3COP(=O)(O)O[C@H]4[C@@H](O)[C@H](n5cnc6c(=O)[nH]c(N)nc65)O[C@@H]4COP(=O)(O)O[C@H]3[C@H]2O)c(=O)[nH]1 [3′,3′cGMP, reference compound] |  |  | 8700 | 3970 | 8620 |  |
| CO[C@H]1[C@H]2OS(=O)(=O)NC[C@H]3O[C@@H](n4cnc5c(N)ncnc54)C[C@@H]3OP(=O)(O)OC[C@H]1O[C@H]2n1cnc2c(=O)[nH]c(N)nc21 [Compound 12] | 140 | 220 |  |  |  |  |
| CO[C@H]1[C@H]2OS(=O)(=O)NC[C@H]3O[C@@H](n4cnc5c(N)ncnc54)[C@@H](F)[C@@H]3O[P@](=O)(O)OC[C@H]1O[C@H]2n1cnc2c(=O)[nH]c(N)nc21 [Compound 28] | 99 | 190 |  |  |  | 12969 |
| CO[C@H]1[C@H]2OP(=O)(O)OC[C@H]3OC(n4cnc5c(N)ncnc54)[C@H](F)[C@@H]3OS(=O)(=O)NC[C@H]1O[C@H]2n1cnc2c(=O)[nH]c(N)nc21 (stereo partly drawn) [Compound 22] | 26 | 92 |  |  |  |  |
| Nc1ncnc2c1ncn2[C@@H]1O[C@@H]2CNS(=O)(=O)O[C@@H]3[C@H](O)[C@@H](COP(=O)(O)O[C@H]2[C@H]1O)O[C@H]3n1cnc2c(N)ncnc21 [Compound 30] | 13000 | > 100000 |  |  |  |  |
| Nc1ncnc2c1ncn2[C@@H]1O[C@@H]2COP(=O)(O)O[C@@H]3[C@H](F)[C@@H](CNS(=O)(=O)O[C@H]2[C@H]1F)O[C@H]3n1cnc2c(N)ncnc21 [Compound 35] | 7080 | > 100000 |  |  |  |  |
| Nc1nc2c(ncn2C2O[C@@H]3COP(=O)(O)O[C@H]4C[C@H](n5cnc6c(N)ncnc65)OC4CNS(=O)(=O)O[C@@H]2[C@@H]3O)c(=O)[nH]1 (stereo partly drawn) [Compound 18] | 110 | 1140 |  |  |  | 15249 |
| COC1C2COP(=O)(O)OC3C(CNS(=O)(=O)OC1C(n1nnc4c(=O)[nH]c(N)nc41)O2)OC(n1cnc2c(N)ncnc21)C3F (stereo not drawn) [Compound 51] |  | 11 |  |  |  |  |
| CO[C@H]1[C@H]2OP(=O)(O)OC[C@H]3O[C@@H](n4cnc5c(=O)[nH]cnc54)[C@H](F)[C@@H]3OS(=O)(=O)NC[C@H]1O[C@H]2n1cnc2c(=O)[nH]c(N)nc21 [Compound 53] |  | 4010 |  |  |  | 11036 |
| CO[C@H]1[C@H]2OP(=O)(O)OC[C@H]3O[C@@H](n4cnc5c(N)ncnc54)[C@H](F)[C@@H]3NS(=O)(=O)OC[C@H]1O[C@H]2n1cnc2c(=O)[nH]c(N)nc21 [Compound 6] | 990 | 11 |  | 1.2 |  | 6762 |
| Nc1nc2c(ncn2[C@@H]2O[C@@H]3CNS(=O)(=O)OC4[C@@H](F)[C@H](n5cnc6c(N)ncnc65)O[C@@H]4COP(=O)(O)O[C@@H]2[C@@H]3O)c(=O)[nH]1 (stereo partly drawn) [Compound 47] | ~39 | 1300 |  |  |  |  |
| Nc1nc2c(ncn2C2OC3CNS(=O)(=O)OC4C(COP(=O)(O)OC2C3)OC(n2cnc3c(N)ncnc32)C4F)c(=O)[nH]1 (stereo not drawn) [Compound 26] | 1020 | 28400 |  |  |  |  |
| CO[C@H]1[C@H]2OS(=O)(=O)NC[C@H]3O[C@@H](n4cnc5c(N)ncnc54)[C@H](F)[C@@H]3OP(=O)(O)OC[C@H]1O[C@H]2n1cc(F)c2c(=O)[nH]cnc21 [Compound 54] |  | 750 |  |  |  | 18578 |
| Nc1nc2c(nnn2[C@@H]2O[C@@H]3COP(=O)(O)O[C@H]4[C@@H](F)[C@H](n5cnc6c(N)ncnc65)O[C@@H]4CNS(=O)(=O)O[C@@H]2C3)c(=O)[nH]1 [Compound 15] | 43 | 360 |  |  |  | 15611 |
| CO[C@H]1[C@H]2OP(=O)(O)OC[C@H]3OC(n4cnc5c(N)ncnc54)C[C@@H]3OS(=O)(=O)NC[C@H]1O[C@H]2n1cnc2c(=O)[nH]c(N)nc21 (stereo partly drawn) [Compound 24] | 11 | 5000 |  |  |  | 11534 |
| CO[C@H]1[C@H]2OP(=O)(O)OC[C@H]3O[C@@H](n4cnc5c(N)ncnc54)C[C@@H]3NS(=O)(=O)OC[C@H]1O[C@H]2n1cnc2c(=O)[nH]c(N)nc21 [Compound 20] | ~220 | 47 |  | 8.2 |  | 6045 |
| CO[C@H]1[C@H]2OS(=O)(=O)NC[C@H]3O[C@@H](n4cnc5c(N)ncnc54)C[C@@H]3OP(=O)(O)OC[C@H]1O[C@H]2n1cnc2c(=O)[nH]cnc21 [Compound 40] | 38 | 66 |  |  |  |  |
| CO[C@H]1[C@H]2OS(=O)(=O)NC[C@H]3O[C@@H](n4cnc5c(N)ncnc54)[C@H](F)[C@@H]3OP(=O)(O)OC[C@H]1O[C@H]2n1cc(F)c2c(=O)n(C)cnc21 [Compound 55] |  | 220 |  |  |  | 25628 |
| CO[C@H]1[C@H]2OS(=O)(=O)NC[C@]34CO[C@H](C3OP(=O)(O)OC[C@H]1O[C@H]2n1cnc2c(=O)[nH]c(N)nc21)[C@H](n1cnc2c(N)ncnc21)O4 (stereo partly drawn) [Compound 9] | 110 | 2790 |  | 280 |  | 8104 |
| Nc1ncnc2c1ncn2[C@@H]1O[C@@H]2COP(=O)(O)O[C@H]3[C@@H](O)[C@H](n4cnc5c(N)ncnc54)O[C@@H]3COP(=O)(O)O[C@H]2[C@H]1O [3′,3′cAMP, reference compound] |  |  | 17800 | 5990 | 73100 | 539 |
| Nc1nc2c(ncn2[C@@H]2O[C@@H]3COP(=O)(O)O[C@H]4[C@@H](O)[C@H](n5cnc6c(N)ncnc65)O[C@@H]4COP(=O)(O)O[C@@H]2[C@@H]3O)c(=O)[nH]1 [c-GAMP, (2′,3′)cyclic guanosine monophosphate-adenosine monophosphate, reference compound] |  |  | 530 |  |  |  |
| Nc1ncnc2c1ncn2[C@@H]1O[C@@H]2COP(=O)(O)O[C@H]3C[C@H](n4cnc5c(N)ncnc54)O[C@@H]3CNS(=O)(=O)O[C@@H]1[C@@H]2F [Compound 36] | 2460 | > 100000 |  |  |  |  |
| Nc1ncnc2c1ncn2C1O[C@@H]2COP(=O)(O)O[C@@H]3[C@H](O)C(CNS(=O)(=O)O[C@H]2[C@H]1F)O[C@H]3n1cnc2c(N)ncnc21 (stereo partly drawn) [Compound 41] | 22500 | > 100000 |  |  |  |  |
| Nc1ncnc2c1ncn2C1O[C@@H]2CNS(=O)(=O)O[C@H]3C(n4cnc5c(N)ncnc54)O[C@H](COP(=O)(O)O[C@H]2[C@H]1F)[C@H]3O (stereo partly drawn) [Compound 17] | 250 | 21600 |  | 5140 |  | 17298 |
| Nc1nc2c(ncn2[C@@H]2O[C@@H]3COP(=O)(O)O[C@H]4[C@@H](F)[C@H](n5cnc6c(N)ncnc65)O[C@@H]4CNS(=O)(=O)O[C@@H]2[C@@H]3O)c(=O)[nH]1 [Compound 11] | 30 | 15 |  | 6.5 |  | 14896 |
| Nc1nc2c(nnn2[C@@H]2O[C@@H]3CNS(=O)(=O)O[C@H]4[C@@H](F)[C@H](n5cnc6c(N)ncnc65)O[C@@H]4COP(=O)(O)O[C@@H]2C3)c(=O)[nH]1 [Compound 37] | 1350 | 12400 |  |  |  |  |
